Results reported in article PMC5962653 (Frontiers in Microbiology, 2018).
Values after ≈ are worked out from the molar mass of the structure shown. Where two headings read alike, the source gives them in different places. Positions of bridges follow the written chain, without caps; N, C: chain ends. Non-standard residues stand in square brackets, D forms with d. Residues, ends and D or L forms follow the SMILES beside them. *: point of attachment. X1 = CC[C@H](C)CCCCC(=O)*; Dab = NCC[C@H](N)C(=O)O

Assays:
[1] = test system: K. pneumoniae VIM-1/DHA-1 producer; type: cell-based, Klebsiella pneumoniae; conditions: colistin 2 mg/L (EUCAST breakpoint), rifampin 2 mg/L, alone or combined; inoculum 1 × 10^6 cfu/mL, 37°C, samples 0-24 h; three experiments
Description: (§1) (2016)]. […] Tubes were incubated at 37°C, with shaking, and samples were taken at 0, 1, 3, 6, and 24 h, serially diluted and plated using a spiral platter (Eddy Jet, IUL S.A., Barcelona, Spain). Bacterial colonies were counted using an automatic counter (Flash & Go, IUL S.A., Barcelona, Spain) ([Pournaras et al., 2011]; [Souli et al., 2011]). Experiments were performed three times on separate occasions. […] Bactericidal activities of single antibiotics or combination were defined as a decrease ≥ 3 log10 cfu/mL from the starting inoculum ([Souli et al., 2009]). Studies were performed in triplicate.
(§2) The RIF concentration used for all strains was 2 mg/L. RIF, filled circles; CST, filled squares; combination of both antimicrobials, filled triangles.

[2] = test system: K. pneumoniae OXA-48 plus CTX-M-15 producer; type: cell-based, Klebsiella pneumoniae; conditions: at 24 h; colistin 0.5 mg/L
Description: as §1, §2

[3] = test system: K. pneumoniae VIM-1 producer; type: cell-based, Klebsiella pneumoniae
Description: as §1, §2

[4] = test system: K. pneumoniae KPC-3 producer; type: cell-based, Klebsiella pneumoniae; conditions: colistin 2 mg/L (EUCAST breakpoint), rifampin 2 mg/L, alone or combined; inoculum 1 × 10^6 cfu/mL, 37°C, samples 0-24 h; three experiments
Description: as §1, §2

[5] = test system: K. pneumoniae Kp28, OXA-48 plus CTX-M-15 producer; test: MIC by broth microdilution (agar dilution for fosfomycin); type: cell-based, Klebsiella pneumoniae; conditions: for MIC: broth microdilution
Excerpt: (§3) Four genetically unrelated clinical isolates of CP-Kp were studied: Kp07, a VIM-1 ST 1603 clone producer ([Miro et al., 2013]); Kp21, which co-produced VIM-1 and the acquired AmpC type beta-lactamase DHA-1 ST 11 clone ([Miro et al., 2013]); Kp28, co-producing OXA-48 ST11 clone and the extended spectrum beta-lactamase (ESBL) CTX-M-15 ([Oteo et al., 2015]); and Kp29, co-producing KPC-3 ST512 clone with the broad spectrum beta-lactamases TEM-1 and SHV-11 ([Lopez-Cerero et al., 2014]), thereinafter VIM-1, VIM-1/DHA-1, OXA-48 plus CTX-M-15, and KPC-3 producers, respectively. Identification of these isolates was confirmed by a Microflex LT-MALDI Biotyper mass spectrometer (Bruker Daltonics GmbH, Bremen, Germany). The presence of carbapenemase genes, and genes coding for other beta-lactamases was confirmed by PCR and sequencing as described previously. The absence of genetic relation among the isolates was confirmed by PFGE analysis of chromosomal restriction fragments obtained after XbaI cleavage following the criteria of [Tenover et al. (1995)]. […] The antibiotic susceptibility profiles are included in the Supplementary Information.
(§4) MICs of antibiotics were determined by broth microdilution as recommended by the [Clinical and Laboratory Standards Institute [CLSI] (2012)], using Mueller Hinton broth II (MHB) (Becton Dickinson & Co., Sparks, MD, United States) and agar dilution method for fosfomycin. MIC results were interpreted according to the [European Committee on Antimicrobial Susceptibility Testing [EUCAST] (2016)]^1 breakpoints. Studies were performed in triplicate.

[6] = test system: K. pneumoniae Kp07, VIM-1 producer; test: as above; type: cell-based, Klebsiella pneumoniae; conditions: for MIC: broth microdilution
Excerpt: as §3, §4

[7] = test system: K. pneumoniae Kp21, VIM-1/DHA-1 producer; test: as above; type: cell-based, Klebsiella pneumoniae; conditions: for MIC: broth microdilution
Excerpt: as §3, §4

[8] = test system: K. pneumoniae Kp29, KPC-3 producer; test: as above; type: cell-based, Klebsiella pneumoniae; conditions: for MIC: broth microdilution
Excerpt: as §3, §4

[9] = test system: K. pneumoniae VIM-1 producer (colistin-susceptible); test: In vitro selection of colistin-resistant mutants (time-kill curves); type: cell-based, Klebsiella pneumoniae; conditions: exposure at the MIC (0.5 mg/L) during 24 h in time-kill curves; sub-cultured twice antimicrobial free; increased from 0.5 mg/L
Description: (§5) MICs determinations of colistin and rifampin were carried out in triplicate.

[10] = test system: K. pneumoniae OXA-48 plus CTX-M-15 producer (colistin-susceptible); test: as above; type: cell-based, Klebsiella pneumoniae; conditions: exposure at the MIC (0.5 mg/L) during 24 h in time-kill curves; sub-cultured twice antimicrobial free; increased from 0.5 mg/L
Description: as §5

[11] = test system: K. pneumoniae VIM-1 strain; type: in vivo; conditions: CMS 20 mg/kg/8 h ip, rifampin 25 mg/kg/6 h ip, alone or combined
Description: (§6) A previously described murine peritoneal sepsis model was used ([Parra Millan et al., 2016]). Briefly, groups of un-anesthetized C57BL/6 mice were infected by ip injection of 0.5 mL of the Minimal Lethal Dose (MLD) of each strain, corresponding to (log10 cfu/mL): 8.97, 8.94 9.35, and 8.38 for VIM-1, VIM-1/DHA-1, OXA-48 plus CTX-M-15, and KPC-3 strains, respectively. Treatments were initiated 4 h post-inoculation. […] Afterward, mice were treated and monitored for 72 h. […] Samples were extracted and processed immediately after the death of mice; the survivor mice were sacrificed (sodium thiopental) at the 72 h. Aseptic thoracotomies were carried out, and blood samples were obtained for qualitative blood cultures; results were expressed as positive (≥1 cfu present in the plate) or negative. Spleens were aseptically extracted, weighed, and homogenized in sterile saline (Stomacher 80; Tekmar Co., Cincinnati, OH, United States) before quantitative cultures (log10 cfu/g) in Columbia agar with 5% sheep blood plates.
(§7) Mortality and bacteremia rates are expressed as percentages and bacterial tissue concentrations (log10 cfu/g) as means ±SD. The two-tailed Fisher’s test, analysis of variance (ANOVA), and the Dunnet and Tukey post hoc tests were used. A P < 0.05 was considered significant. The SPSS v22.0 statistical package was used (SPSS Inc).

[12] = test system: K. pneumoniae VIM-1/DHA-1 strain; type: in vivo; conditions: CMS 20 mg/kg/8 h ip, rifampin 25 mg/kg/6 h ip, alone or combined
Description: as §6, §7

[13] = test system: K. pneumoniae OXA-48 plus CTX-M-15 strain; type: in vivo
Description: A previously characterized murine pneumonia model was used ([Pachon-Ibanez et al., 2010]; [Docobo-Perez et al., 2012]; [Parra Millan et al., 2016]) with the OXA-48 plus CTX-M-15 strain, as OXA-48 is the most prevalent carbapenemase in Spain nowadays ([Palacios-Baena et al., 2016]). Anesthetized mice were infected intratracheally, using 50 μl of a final inoculum of 8.18 log10 cfu/mL. Therapies were initiated 4 h post-infection and treatment groups and dosages were the same as in the peritoneal sepsis model. Mice were treated and monitored over 72 h. After death or sacrifice of the mice at 72 h, blood and lungs samples were aseptically obtained and processed as detailed above.
as §7

[14] = test system: K. pneumoniae OXA-48 plus CTX-M-15 strain; test: Murine peritoneal sepsis model; type: in vivo, C57BL/6 mice infected with Klebsiella pneumoniae; conditions: CMS 20 mg/kg/8 h ip, rifampin 25 mg/kg/6 h ip, alone or combined
Description: as §6, §7

[15] = mouse, in vivo
Description: Mice were housed in an individually ventilated cage system under specific pathogen-free conditions, and water and food supplied ad libitum. […] All procedures were performed under sodium thiopental (B. Braun Medical S.A., Spain) anesthesia, and all efforts were made to minimize suffering.
Blood samples were immediately centrifuged (4500 rpm, 15 min at 4°C), and serum samples stored at -80°C until the analysis. Both serum free and total antibiotic concentrations were measured using HPLC-tandem mass spectrometry (LC-MS/MS) ([Waters et al., 2008]; [Gobin et al., 2010]). Free fractions of the drugs were calculated as described previously ([Waters et al., 2008]; [Gonzalez et al., 2013]; [Cheah et al., 2015]).

[16] = test system: K. pneumoniae KPC-3 strain; type: in vivo, C57BL/6 mice infected with Klebsiella pneumoniae; conditions: CMS 20 mg/kg/8 h ip, rifampin 25 mg/kg/6 h ip, alone or combined
Description: as §6, §7

[17] = Table 1, Mueller Hinton broth II, CLSI, triplicate
[18] = 72 h, from 4 h post-inoculation
[19] = qualitative blood cultures at death or 72 h

Question: Which “Bactericidal activity in time-kill curves (decrease ≥ 3 log10 cfu/mL from the starting inoculum)” value [1] does the source give for `CC[C@H](C)CCCCC(=O)N[C@@H](CCN)C(=O)N[C@H](C(=O)N[C@@H](CCN)C(=O)N[C@H]1CCNC(=O)[C@H]([C@@H](C)O)NC(=O)[C@H](CCN)NC(=O)[C@H](CCN)NC(=O)[C@H](CC(C)C)NC(=O)[C@@H](CC(C)C)NC(=O)[C@H](CCN)NC1=O)[C@@H](C)O` [Colistin, colistin] (X1-[Dab]T[Dab][Dab][Dab][dL]L[Dab][Dab]T; lactam 4-C (inferred); N-terminus assumed) here?
Answer: did not display any bactericidal activity

Question: What about the “Regrowth in time-kill curves” value [2] of the same molecule?
Answer: important regrowth at 24 h

Question: And the “Regrowth in time-kill curves” value ([3]; at 24 h, colistin 0.5 mg/L)?
Answer: important regrowth at 24 h

Question: And the “Bactericidal activity in time-kill curves (decrease ≥ 3 log10 cfu/mL from the starting inoculum)” value ([3]; colistin 0.5 mg/L (MIC), rifampin 2 mg/L, alone or combined, inoculum 1 × 10^6 cfu/mL, 37°C, samples 0-24 h, three experiments)?
Answer: bactericidal at 3 h

Question: And the “Bactericidal activity in time-kill curves (decrease ≥ 3 log10 cfu/mL from the starting inoculum)” value [4]?
Answer: did not display any bactericidal activity

Question: And the MIC [5, 17]?
Answer: 0.5 [^∗] mg/L

Question: And the “SIR, classification according to EUCAST definitions” value (shortened to “SIR, classification according”) ([5]; supplement table, strain KPc28, EUCAST 2016 breakpoints, fosfomycin by agar dilution)?
Answer: S

Question: And the MIC ([5]; supplement table, strain KPc28)?
Answer: 0.5 mg/L (≈ 0.428 µM)

Question: And the MIC [6, 17]?
Answer: 0.5 [^∗] mg/L

Question: And the “SIR, classification according” value ([6]; supplement table, strain KPc07, EUCAST 2016 breakpoints, fosfomycin by agar dilution)?
Answer: S

Question: What about the MIC ([6]; supplement table, strain KPc07) of the same molecule?
Answer: 0.5 mg/L (≈ 0.428 µM)

Question: And the MIC [7, 17]?
Answer: 64 [^∗∗] mg/L

Question: What about the “SIR, classification according” value ([7]; supplement table, strain KPc21, EUCAST 2016 breakpoints, fosfomycin by agar dilution) of the same molecule?
Answer: R

Question: And the MIC ([7]; supplement table, strain KPc21)?
Answer: > 32 mg/L

Question: And the MIC [8, 17]?
Answer: 32 [^∗∗] mg/L

Question: What about the “SIR, classification according” value ([8]; supplement table, strain KPc29, EUCAST 2016 breakpoints, fosfomycin by agar dilution) of the same molecule?
Answer: R

Question: And the MIC ([8]; supplement table, strain KPc29)?
Answer: > 32 mg/L

Question: And the “Colistin MIC of colonies recovered after exposure to colistin” value [9]?
Answer: > 8 µg/mL

Question: What about the “Colistin MIC of colonies recovered after exposure to colistin” value [10] of the same molecule?
Answer: > 8 µg/mL

Question: Which “Mice mortality (%)” value [11, 18] does the source give for colistimethate sodium [CMS] here?
Answer: 93.33%

Question: And the “Log10 cfu/g spleen (mean ±SD)” value ([11]; ip MLD 8.97 log10 cfu/mL, from 4 h post-inoculation, 72 h, at death or 72 h, SD)?
Answer: 8.60 ± 0.30 log10 cfu/g

Question: What about the “Bacteremia (%)” value [11, 19] of the same molecule?
Answer: 100%

Question: What about the “Mice mortality (%)” value [12, 18] of the same molecule?
Answer: 100%

Question: What about the “Log10 cfu/g spleen (mean ±SD)” value ([12]; ip MLD 8.94 log10 cfu/mL, from 4 h post-inoculation, 72 h, at death or 72 h, SD) of the same molecule?
Answer: 9.54 ± 0.34 log10 cfu/g

Question: And the “Bacteremia (%)” value [12, 19]?
Answer: 100%

Question: What about the “Mice mortality (%)” value ([13]; 72 h, CMS 20 mg/kg/8 h ip, rifampin 25 mg/kg/6 h ip, alone or combined, from 4 h post-infection) of the same molecule?
Answer: 26.70%

Question: And the Bacterial lung decrease ([13]; CMS monotherapy 20 mg/kg/8 h ip vs control group, not significant)?
Answer: 2.91 log10 cfu/g

Question: And the “Bacteremia (%)” value ([13]; blood cultures at death or 72 h, CMS 20 mg/kg/8 h ip, rifampin 25 mg/kg/6 h ip, alone or combined)?
Answer: 40%

Question: What about the “Log10 cfu/g lung (mean ±SD)” value ([13]; intratracheal 50 μl of 8.18 log10 cfu/mL, CMS 20 mg/kg/8 h ip, rifampin 25 mg/kg/6 h ip, alone or combined, from 4 h post-infection, 72 h, at death or 72 h, SD) of the same molecule?
Answer: 5.14 ± 3.78 log10 cfu/g

Question: And the “Mice mortality (%)” value [14, 18]?
Answer: 100%

Question: What about the “Log10 cfu/g spleen (mean ±SD)” value ([14]; ip MLD 9.35 log10 cfu/mL, from 4 h post-inoculation, 72 h, at death or 72 h, SD) of the same molecule?
Answer: 9.52 ± 0.55 log10 cfu/g

Question: What about the “Bacteremia (%)” value [14, 19] of the same molecule?
Answer: 100%

Question: And the “t1/2, free drug in serum” value [15]?
Answer: 3.82 h

Question: And the “t1/2, total drug in serum” value [15]?
Answer: 3.82 h

Question: What about the “Mice mortality (%)” value [16, 18] of the same molecule?
Answer: 75%

Question: And the “Log10 cfu/g spleen (mean ±SD)” value ([16]; ip MLD 8.38 log10 cfu/mL, from 4 h post-inoculation, 72 h, at death or 72 h, SD)?
Answer: 9.19 ± 1.85 log10 cfu/g

Question: And the “Bacteremia (%)” value [16, 19]?
Answer: 100%
